The values that follow come from ChEMBL document CHEMBL1156950, “Synthesis and biological evaluation of 4-anilinoquinolines as potent inhibitors of epidermal growth factor receptor” (J Med Chem, 2010).

Active and inactive are the calls of the source. The calls are words filed in the database; no cut-off is given here.

The nature of experiment [1]: cells. The settings on record: Mus musculus, BaF3, 96 h.
Description: Growth inhibition of mouse BA/F3 cells expressing EGFR Del5 mutant after 96 hrs by cell titer-glo assay
The nature of experiment [2]: cells. The settings on record: Mus musculus, BaF3, 96 h. The source holds these as a separate data set.
Description: Growth inhibition of mouse BA/F3 cells expressing EGFR Del1 and Thr790Met mutant after 96 hrs by cell titer-glo assay
The nature of experiment [3]: cells. The settings on record: Mus musculus, BaF3, 96 h. This is another data set of the same source.
A short description of experiment [4]: cells. Particulars: Mus musculus, BaF3, 96 h. This is another data set of the same source.
Description: Growth inhibition of mouse BA/F3 cells expressing EGFR Del1 mutant after 96 hrs by cell titer-glo assay
A short description of experiment [5]: cells. Particulars: Mus musculus, BaF3, 96 h. This is another data set of the same source.
Description: Growth inhibition of mouse BA/F3 cells expressing EGFR Del3 and Thr790Met mutant after 96 hrs by cell titer-glo assay
Experiment [6] is described as follows: cells. Particulars: Mus musculus, BaF3, 96 h. This is another data set of the same source.
Description: Growth inhibition of mouse BA/F3 cells expressing EGFR Del5 and Thr790Met mutant after 96 hrs by cell titer-glo assay
A short description of experiment [7]: cells. Particulars: Mus musculus, BaF3, 96 h. The source holds these as a separate data set.
Description: Growth inhibition of mouse BA/F3 cells expressing EGFR Del3 mutant after 96 hrs by cell titer-glo assay
A short description of experiment [8]: cells. The settings on record: Mus musculus, BaF3, 96 h. The source holds these as a separate data set.
The target in experiment [9] is T1, Epidermal growth factor receptor (Homo sapiens, UniProt P00533). Put plainly: Inhibition of 746-750 sequence deleted EGFR autophosphorylation in human PC9 cells after 24 hrs by immunoblotting. Particulars: PC-9. It is filed as cell-based.
T1 sequence (P00533 whole entry): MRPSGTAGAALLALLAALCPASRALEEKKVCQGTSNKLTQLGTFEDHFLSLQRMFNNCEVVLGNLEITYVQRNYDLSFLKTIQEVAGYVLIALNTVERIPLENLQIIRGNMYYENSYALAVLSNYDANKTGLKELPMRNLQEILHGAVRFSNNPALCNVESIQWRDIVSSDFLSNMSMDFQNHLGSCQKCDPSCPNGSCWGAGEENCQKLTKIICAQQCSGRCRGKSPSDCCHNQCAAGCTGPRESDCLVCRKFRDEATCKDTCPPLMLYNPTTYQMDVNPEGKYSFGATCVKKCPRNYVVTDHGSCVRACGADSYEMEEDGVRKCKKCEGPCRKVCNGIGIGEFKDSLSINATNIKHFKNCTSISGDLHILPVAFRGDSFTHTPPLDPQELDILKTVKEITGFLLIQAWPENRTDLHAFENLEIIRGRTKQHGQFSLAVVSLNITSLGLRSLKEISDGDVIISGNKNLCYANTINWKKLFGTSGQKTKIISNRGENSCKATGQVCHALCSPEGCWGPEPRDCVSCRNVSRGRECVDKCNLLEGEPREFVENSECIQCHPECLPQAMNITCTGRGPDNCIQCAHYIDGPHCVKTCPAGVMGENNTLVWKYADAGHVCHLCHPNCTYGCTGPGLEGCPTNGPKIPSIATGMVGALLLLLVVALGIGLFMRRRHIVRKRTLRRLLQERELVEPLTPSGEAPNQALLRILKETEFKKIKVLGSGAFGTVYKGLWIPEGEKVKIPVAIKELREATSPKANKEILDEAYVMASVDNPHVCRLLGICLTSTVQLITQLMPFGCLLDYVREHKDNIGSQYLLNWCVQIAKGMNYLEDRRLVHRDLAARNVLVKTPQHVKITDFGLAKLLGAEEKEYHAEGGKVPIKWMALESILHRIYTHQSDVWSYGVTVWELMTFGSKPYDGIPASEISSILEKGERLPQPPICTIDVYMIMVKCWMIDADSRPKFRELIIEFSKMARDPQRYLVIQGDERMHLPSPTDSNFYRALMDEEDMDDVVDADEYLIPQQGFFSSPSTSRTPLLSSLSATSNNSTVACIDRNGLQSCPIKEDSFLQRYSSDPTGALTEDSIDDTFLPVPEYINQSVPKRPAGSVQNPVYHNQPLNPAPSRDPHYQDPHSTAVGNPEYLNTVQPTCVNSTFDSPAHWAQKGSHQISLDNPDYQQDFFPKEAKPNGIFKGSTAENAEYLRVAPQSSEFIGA
In experiment [10] the target is T1, Epidermal growth factor receptor. The experiment can be described thus: Inhibition of wild type EGFR by HTRF assay. (In general: Time-resolved FRET reads energy transfer from a long-lived donor to a nearby acceptor.)
Experiment [11] addresses Epidermal growth factor receptor (Homo sapiens, UniProt P00533, L858R/T790M). Put plainly: Inhibition of EGFR Leu858Arg and Thr790Met mutant by HTRF assay. It is filed as protein assay.
The subject of experiment [12] is NCI-H1975. The experiment can be described thus: Cytotoxicity against human NCI-H1975 cells expressing EGFR T790M and L858R mutant at 0.001 to 10 uM after 96 hrs by cell titer-glo assay. It is filed as functional, cell-based. (Cellular ATP, detected with luciferase, serves as a proxy for viable cell number.)
The subject of experiment [13] is PC-9. Put plainly: Cytotoxicity against human PC9 cells expressing 746-750 sequence deleted EGFR assessed as cell viability at 0.001 to 10 uM after 96 hrs by cell titer-glo assay. The format is functional, cell-based.
In experiment [14] the target is Epidermal growth factor receptor (Homo sapiens, UniProt P00533, L858R). Put plainly: Inhibition of EGFR Leu858Arg mutant by HTRF assay. The format is protein assay.
Chain of Epidermal growth factor receptor (Homo sapiens, UniProt P00533, L858R) (P00533 25-1210 L858R limits assumed): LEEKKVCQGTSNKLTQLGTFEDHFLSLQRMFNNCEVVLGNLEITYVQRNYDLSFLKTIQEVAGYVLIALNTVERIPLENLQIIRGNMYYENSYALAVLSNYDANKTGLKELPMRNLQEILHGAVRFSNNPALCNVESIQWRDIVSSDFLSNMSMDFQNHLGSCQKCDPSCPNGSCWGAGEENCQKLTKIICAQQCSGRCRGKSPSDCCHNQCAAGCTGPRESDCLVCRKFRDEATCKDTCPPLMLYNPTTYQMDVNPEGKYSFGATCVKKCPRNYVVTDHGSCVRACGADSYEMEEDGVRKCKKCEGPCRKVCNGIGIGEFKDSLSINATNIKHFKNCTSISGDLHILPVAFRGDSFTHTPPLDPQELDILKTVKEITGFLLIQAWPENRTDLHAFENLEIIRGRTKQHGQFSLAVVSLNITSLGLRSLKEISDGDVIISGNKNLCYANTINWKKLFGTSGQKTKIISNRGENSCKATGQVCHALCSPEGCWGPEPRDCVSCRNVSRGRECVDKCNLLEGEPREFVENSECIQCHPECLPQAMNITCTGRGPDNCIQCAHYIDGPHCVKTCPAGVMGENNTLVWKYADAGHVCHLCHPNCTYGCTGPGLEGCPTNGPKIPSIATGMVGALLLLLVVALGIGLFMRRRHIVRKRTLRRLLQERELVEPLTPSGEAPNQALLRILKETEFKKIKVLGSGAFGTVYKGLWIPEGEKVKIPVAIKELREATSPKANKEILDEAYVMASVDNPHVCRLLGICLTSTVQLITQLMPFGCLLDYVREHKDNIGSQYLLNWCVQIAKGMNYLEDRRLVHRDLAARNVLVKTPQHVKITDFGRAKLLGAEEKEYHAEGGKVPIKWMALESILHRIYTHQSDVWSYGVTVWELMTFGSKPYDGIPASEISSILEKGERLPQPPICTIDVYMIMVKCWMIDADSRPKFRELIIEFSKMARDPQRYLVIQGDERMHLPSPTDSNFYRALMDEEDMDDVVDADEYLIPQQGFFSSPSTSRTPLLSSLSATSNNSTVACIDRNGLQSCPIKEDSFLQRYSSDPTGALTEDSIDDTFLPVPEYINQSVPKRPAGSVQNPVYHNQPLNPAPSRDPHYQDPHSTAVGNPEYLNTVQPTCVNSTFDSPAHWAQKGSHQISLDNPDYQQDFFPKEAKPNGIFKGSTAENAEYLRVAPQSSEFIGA

Chain of Epidermal growth factor receptor (Homo sapiens, UniProt P00533, L858R/T790M) (P00533 25-1210 T790M/L858R limits assumed): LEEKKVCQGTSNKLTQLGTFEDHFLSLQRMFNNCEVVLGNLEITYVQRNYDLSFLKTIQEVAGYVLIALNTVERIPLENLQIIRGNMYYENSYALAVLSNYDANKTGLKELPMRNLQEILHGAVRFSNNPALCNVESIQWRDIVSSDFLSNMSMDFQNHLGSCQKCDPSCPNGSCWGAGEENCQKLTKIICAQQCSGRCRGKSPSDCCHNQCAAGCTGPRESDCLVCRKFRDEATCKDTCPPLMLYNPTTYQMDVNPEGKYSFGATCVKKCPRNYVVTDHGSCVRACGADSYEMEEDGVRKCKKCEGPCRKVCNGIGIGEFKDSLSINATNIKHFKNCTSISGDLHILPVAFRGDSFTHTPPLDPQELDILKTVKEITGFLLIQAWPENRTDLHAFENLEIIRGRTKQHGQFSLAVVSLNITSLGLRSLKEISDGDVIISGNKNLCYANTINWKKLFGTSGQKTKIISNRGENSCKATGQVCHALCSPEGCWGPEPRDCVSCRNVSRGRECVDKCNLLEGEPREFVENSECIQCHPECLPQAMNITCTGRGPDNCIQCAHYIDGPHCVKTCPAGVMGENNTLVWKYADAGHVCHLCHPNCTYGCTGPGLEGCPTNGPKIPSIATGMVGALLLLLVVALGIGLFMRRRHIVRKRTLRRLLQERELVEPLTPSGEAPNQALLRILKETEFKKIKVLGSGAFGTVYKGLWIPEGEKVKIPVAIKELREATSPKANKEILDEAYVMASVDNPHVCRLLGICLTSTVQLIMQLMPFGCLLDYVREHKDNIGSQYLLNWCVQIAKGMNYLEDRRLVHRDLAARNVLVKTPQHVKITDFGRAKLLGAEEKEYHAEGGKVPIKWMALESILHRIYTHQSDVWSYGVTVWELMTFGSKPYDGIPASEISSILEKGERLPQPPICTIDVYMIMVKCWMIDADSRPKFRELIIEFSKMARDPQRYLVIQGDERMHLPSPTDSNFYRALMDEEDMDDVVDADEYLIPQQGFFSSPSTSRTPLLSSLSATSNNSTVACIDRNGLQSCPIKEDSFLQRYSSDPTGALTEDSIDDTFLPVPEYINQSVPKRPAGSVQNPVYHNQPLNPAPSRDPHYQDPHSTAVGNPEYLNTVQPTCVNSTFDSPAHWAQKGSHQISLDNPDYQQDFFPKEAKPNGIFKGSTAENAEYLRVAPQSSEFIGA

`CCC(=O)Nc1ccc2nccc(Nc3cccc(Br)c3)c2c1`: the GI50 was greater than 500 nM in [1]; greater than 500 nM in experiment [2]; greater than 500 nM in [3]; less than 500 nM in [4]; greater than 500 nM in experiment [5]; greater than 500 nM in experiment [6]. Moreover, the concentration for 50% growth inhibition (GI50) in experiment [7] was less than 500 nM; in experiment [8] it was greater than 500 nM.
In the case of `C=CC(=O)Nc1ccc2nccc(Nc3cccc(Br)c3)c2c1`, in experiment [9], the Activity result is “Dose-dependent effect”. For the same molecule, the GI50 is less than 500 nM in experiment [1]; greater than 500 nM in [2]; less than 500 nM in experiment [3]; less than 500 nM in [4]; greater than 500 nM in experiment [5]; greater than 500 nM in experiment [6]. Moreover, the concentration for 50% growth inhibition (GI50) in experiment [7] is less than 500 nM; in experiment [8] it was greater than 500 nM. The IC50 in experiment [10] is less than 1 nM; in experiment [11], 3.2 nM; in [14] it was less than 1 nM. The result in experiment [12] and in experiment [13] was Active.
Consider `C=CC(=O)Nc1ccc2ncnc(Nc3cccc(Br)c3)c2c1`, for which the GI50 in [1] is less than 500 nM; in experiment [2], greater than 500 nM; in experiment [3], less than 500 nM; in [4] it was less than 500 nM; in experiment [5], less than 500 nM; in [6], less than 500 nM. Besides, the 50% growth inhibitory concentration (GI50) in experiment [7] and in [8] was less than 500 nM each time.
For the molecule `C#Cc1cccc(Nc2ccnc3cc(OCCOC)c(OCCOC)cc23)c1`, the GI50 in experiment [1] was greater than 5000 nM; in experiment [2], greater than 500 nM; in experiment [3], less than 500 nM; in experiment [4] it was less than 500 nM; in [5], greater than 500 nM; in [6], greater than 5000 nM. In addition, the 50% growth inhibitory concentration (GI50) in experiment [7] and in [8] was greater than 500 nM each time. Moreover, the values for the IC50 in experiment [10], in experiment [11] and in [14] were 30 nM, 1500 nM and 14 nM, respectively.
`C#Cc1cccc(Nc2ncnc3cc(OCCOC)c(OCCOC)cc23)c1` [ERLOTINIB]: the GI50 in [1] is less than 500 nM; in experiment [2], greater than 5000 nM; in [3] it was less than 500 nM; in [4] it was less than 500 nM; in experiment [5] it was greater than 5000 nM; in [6], greater than 5000 nM. In addition, the results for the GI50 in experiment [7] and in [8] were less than 500 nM and greater than 5000 nM, respectively. Also, the result in experiment [12] and in experiment [13] was Active.
On to `C#Cc1cccc(Nc2ccnc3cc(OC)c(OC)cc23)c1`, for which the GI50 in experiment [1] was less than 500 nM; in experiment [2], greater than 5000 nM; in experiment [3], less than 500 nM; in [4], less than 500 nM; in experiment [5], greater than 5000 nM; in experiment [6], greater than 5000 nM. For the same molecule, the figures for the GI50 in experiment [7] and in experiment [8] were less than 500 nM and greater than 5000 nM, respectively. For the same molecule, the 50% inhibitory concentration (IC50) in experiment [10] was 19 nM; in experiment [11], 1500 nM; in experiment [14], 4 nM.
In the case of `C#Cc1cccc(Nc2ncnc3cc(OC)c(OC)cc23)c1`, the GI50 in [1] is less than 500 nM; in [2], greater than 500 nM; in experiment [3] it was less than 500 nM; in [4], less than 500 nM; in experiment [5], greater than 5000 nM; in experiment [6] it was greater than 5000 nM. For the same molecule, the GI50 in experiment [7] was less than 500 nM; in experiment [8] it was greater than 5000 nM. The IC50 in experiment [10] was less than 1 nM; in [11], 140 nM; in [14], less than 1 nM.

For orientation: GI50 means the concentration giving 50% growth inhibition. High values mean lower sensitivity of the cells, low ones greater sensitivity of the cells. In general, IC50 refers to the concentration at which inhibition is half-maximal.
